# Measurements reported in patent EP4463162B1, “CONNEXIN 43 FOR USE IN TREATING BRCA1/2-MUTATED CANCER” (Fundación Profesor Novoa Santos, priority 2022, dated 2023).
# pIC50: −log10 of the molar value. Like-named read-outs stand apart in the source and are kept apart here.
# Key:
# [1] = tested on: control empty vector (EV) HCC1937 cells; assay: 48 h olaparib dose-response curve, cell viability; format: cell-based; settings: Homo sapiens, HCC1937, 48 h
# [2] = tested on: poly(ADP-ribose) (PAR) polymer; assay: Global protein PARylation, western blot and immunofluorescence; format: cell-based, human; settings: 48 and 96 h, western blot
# Description: 2 000-10 000 cells were plated on glass coverslips (Thermo Fisher Scientific) previously coated with poly-D-lysine hydrobromide (Sigma-Aldrich) and cultured until they were approximately 80 % confluent. They were washed with PBS, fixed with 4 % paraformaldehyde (PFA, Sigma-Aldrich) in PBS for 15 min at room temperature and rinsed twice with PBS. Next, cells were incubated with 0.1 M glycine (Sigma-Aldrich) in distilled water to quench PFA for 10 min at room temperature, and then their membranes were permeabilized with 0.2 % Triton X-100 (Sigma-Aldrich) in PBS for 10 min at room temperature. After two 5 min PBS washes, potential nonspecific antibody binding sites were blocked with 1 % bovine serum albumin (BSA; Sigma-Aldrich) diluted in PBST (PBS+0.1 % Tween 20; Sigma-Aldrich) for 30 min at room temperature. Cells were incubated overnight at 4 °C in the dark with primary antibody (see references in Table 3) diluted in 1 % BSA in PBST. […]
# Protein extracts were mixed with loading buffer, which consisted of 10 % (v/v) β-mercaptoethanol (Sigma-Aldrich), 10 % SDS, 50 % (v/v) glycerol, 200 mM Tris-HCl pH 6.8 and 0.1 % bromophenol blue (Sigma-Aldrich). […] Ponceau staining and western blot images were analysed and their band intensities quantitated with Image J software. […]
# [3] = tested on: SNU251 cells; assay: Proliferation assay (Cell Counting Kit-8); format: cell-based, human; settings: Cx43-restored SNU251 vs EV, 100 and 200 µM olaparib, 96 h, beginning at 48 h
# Description: Proliferation of tumour cell lines was evaluated using the Cell Counting Kit-8 (Dojindo Molecular Technologies). This kit comprises WST-8, a highly water-soluble tetrazolium salt, which upon reduction by cellular dehydrogenases of viable cells, gives rise to a yellow formazan dye that is solube in cell culture media and can be quantitated. Briefly, similar number of cells (1 000-5 000) were plated in 96-well plates (Corning) and left to grow for the desired time period under different treatment conditions. Then, medium was renewed (100 µL volume/well) and 10 µL of CCK-8 reagent were added to each well. Plates were incubated in the dark for 3 h at 37 °C, and absorbance was measured at 450 nm in a NanoQuant Infinite 200 plate reader (Tecan).
# In order to complement previous results with another clinically relevant PARPi-treated cancer, assays were repeated with BRCA1 mutated ovarian cancer cell line SNU251, efficiently nucleofected with EV or Cx43-restituting plasmids (Figure 8). SNU251 wild type (EV) cells had no native Cx43 expression, as assayed by western blot ( Figure 8.A).
# To further characterize its involvement in BRCA1/2 mutated cancer, Cx43 was restituted by plasmid transfection in BRCA1 mutated TNBC and ovarian carcinoma cell lines, HCC1937 and SNU251, respectively. […]
# [4] = tested on: cleaved caspase 3, PARP-1; settings: 50 and 100 µM olaparib
# Description: Protein extracts were mixed with loading buffer, which consisted of 10 % (v/v) β-mercaptoethanol (Sigma-Aldrich), 10 % SDS, 50 % (v/v) glycerol, 200 mM Tris-HCl pH 6.8 and 0.1 % bromophenol blue (Sigma-Aldrich). They were boiled at 95 °C for 8 min and 20-30 µg protein were loaded into 8, 10 or 15 % acrylamide/bis-acrylamide self-made gels, depending on the molecular weight of the target protein/s to investigate. Gels were run at 80 V for approximately 2 h using a Mini-PROTEAN Tetra electrophoresis system (BioRad), and then transferred to methanol-preactivated polyvinylidene fluoride (PVDF) membranes (Millipore) at 100 V and 4 °C for 1-1.5 h with a Mini Trans-Blot Electrophoretic Transfer Cell (BioRad). Afterwards, membranes with the transferred proteins were stained with ATX Ponceau S red staining solution (Sigma-Aldrich) for 10 min at room temperature, photographed in an Amersham Imager 600 (GE Healthcare) and unstained with distilled water. They were then blocked for 1 h at room temperature with 5 % skim milk (Sigma-Aldrich) diluted in TBST buffer (Tris-buffered saline TBS composed of 20 mM Tris and 150 mM NaCl, supplemented with 0.05 % (v/v) Tween-20, Sigma-Aldrich) with shaking. […] Ponceau staining and western blot images were analysed and their band intensities quantitated with Image J software.
smiles,measurement,setting,value
"O=C(c1cc(Cc2n[nH]c(=O)c3ccccc23)ccc1F)N1CCN(C(=O)C2CC2)CC1 [Olaparib, olaparib]",pIC50,[1],3.22
same,PAR levels,"[2]; Cx43_HCC1937, 50/100 µM olaparib",decreased
same,PAR levels,"[2]; EV_HCC1937, 50/100 µM olaparib",rose
same,response to olaparib (proliferation),[3],significantly better response to olaparib than EV cells
same,PARP-1 cleavage,"[4]; Cx43_HCC1937, 96 h",strong PARP-1 cleavage
same,PARP-1 cleavage,"[4]; EV_HCC1937, 96 h",low cleavage levels
